# ChEMBL document CHEMBL5346943, “Discovery and Structural Optimization of Novel Quinolone Derivatives as Potent Irreversible Pan-Fibroblast Growth Factor Receptor Inhibitors for Treating Solid Tumors” (J Med Chem, 2023)
# Columns and labels:
# [1] = tested on: Huh-7; assay: Antiproliferative activity against human Huh-7 cells incubated for 72 hrs by Cell counting kit 8 method; assay type: functional, cell-based; settings: Huh-7, 72 h
# [2] = tested on: Hep 3B2; assay: Antiproliferative activity against human Hep3B cells incubated for 72 hrs by Cell counting kit 8 method; assay type: functional, cell-based
# [3] = biological target: T1, Fibroblast growth factor receptor 4 (Homo sapiens, UniProt P22455); assay: Inhibition of FGFR4 (unknown origin) incubated for 10 mins followed by substrate addition measured after 60 mins by ADP-Glo luminescence assay
# Target sequence in this assay (P22455 whole entry): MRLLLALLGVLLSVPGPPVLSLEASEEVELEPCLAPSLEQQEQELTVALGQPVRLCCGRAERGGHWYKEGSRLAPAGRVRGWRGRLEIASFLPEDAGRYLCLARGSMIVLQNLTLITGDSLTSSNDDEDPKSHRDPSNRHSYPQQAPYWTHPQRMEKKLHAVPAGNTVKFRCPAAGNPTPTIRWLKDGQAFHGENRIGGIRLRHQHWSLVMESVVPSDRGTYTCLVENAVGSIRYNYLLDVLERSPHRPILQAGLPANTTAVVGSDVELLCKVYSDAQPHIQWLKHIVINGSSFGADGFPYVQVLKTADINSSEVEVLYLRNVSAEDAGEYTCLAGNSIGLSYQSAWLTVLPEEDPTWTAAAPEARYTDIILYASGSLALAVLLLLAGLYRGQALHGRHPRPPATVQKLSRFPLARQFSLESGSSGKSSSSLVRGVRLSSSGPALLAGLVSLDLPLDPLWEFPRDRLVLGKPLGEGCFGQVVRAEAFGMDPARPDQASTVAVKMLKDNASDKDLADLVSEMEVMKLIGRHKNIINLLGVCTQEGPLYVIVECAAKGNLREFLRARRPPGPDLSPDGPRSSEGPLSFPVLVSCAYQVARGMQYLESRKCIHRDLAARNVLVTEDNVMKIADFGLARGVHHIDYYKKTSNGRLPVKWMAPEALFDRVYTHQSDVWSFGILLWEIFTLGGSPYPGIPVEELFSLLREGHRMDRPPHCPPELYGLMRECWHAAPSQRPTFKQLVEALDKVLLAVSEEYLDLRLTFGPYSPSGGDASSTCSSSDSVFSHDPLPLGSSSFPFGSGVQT
# [4] = biological target: T1, Fibroblast growth factor receptor 4; assay: Inhibition of FGFR4 (unknown origin) at 100 nM incubated for 10 mins followed by substrate addition measured after 60 mins by ADP-Glo luminescence assay relative to control; settings: time 70.0 min
# Target sequence in this assay (P22455 22-802 limits assumed): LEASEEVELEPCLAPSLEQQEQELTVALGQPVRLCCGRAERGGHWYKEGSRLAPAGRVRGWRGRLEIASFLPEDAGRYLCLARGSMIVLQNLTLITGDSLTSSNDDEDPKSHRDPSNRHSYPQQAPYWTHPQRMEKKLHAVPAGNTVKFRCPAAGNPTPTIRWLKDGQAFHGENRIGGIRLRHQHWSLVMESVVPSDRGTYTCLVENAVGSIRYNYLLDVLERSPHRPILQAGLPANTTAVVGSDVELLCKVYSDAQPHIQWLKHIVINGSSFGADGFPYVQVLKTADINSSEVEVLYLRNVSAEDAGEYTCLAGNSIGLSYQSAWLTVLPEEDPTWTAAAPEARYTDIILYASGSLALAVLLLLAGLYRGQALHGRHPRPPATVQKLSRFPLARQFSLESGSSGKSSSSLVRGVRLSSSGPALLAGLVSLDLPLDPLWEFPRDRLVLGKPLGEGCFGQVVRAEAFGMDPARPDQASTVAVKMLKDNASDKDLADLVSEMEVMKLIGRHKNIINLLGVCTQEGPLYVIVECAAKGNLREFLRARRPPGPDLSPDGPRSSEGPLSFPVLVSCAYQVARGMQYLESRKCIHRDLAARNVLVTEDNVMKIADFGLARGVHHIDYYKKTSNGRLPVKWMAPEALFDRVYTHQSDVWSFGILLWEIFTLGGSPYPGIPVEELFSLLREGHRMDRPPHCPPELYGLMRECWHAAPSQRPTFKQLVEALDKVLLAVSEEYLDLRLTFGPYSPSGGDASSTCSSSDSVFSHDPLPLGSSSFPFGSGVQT
# [5] = biological target: Fibroblast growth factor receptor 2 (Homo sapiens, UniProt P21802); assay: Inhibition of FGFR2 (unknown origin) incubated for 10 mins followed by substrate addition measured after 60 mins by ADP-Glo luminescence assay
# [6] = Ionization constant, pKa of the compound in PBS buffer at pH 1.42 to 12.33 by electrochemical method; assay type: physicochemical
# [7] = biological target: Fibroblast growth factor receptor 1 (Homo sapiens, UniProt P11362); assay: Inhibition of FGFR1 (unknown origin) incubated for 10 mins followed by substrate addition measured after 60 mins by ADP-Glo luminescence assay
# [8] = Permeability of the compound at 10 uM preincubated in acceptor compartment for 16 hrs followed by 16 hrs incubation in donor compartment by PAMPA based LC-MS/MS analysis; assay type: ADME; settings: time 32 hrs, read-out: permeability
# [9] = Microsomal stability in human liver microsomes assessed as intrinsic clearance preincubated for 10 mins followed by NADPH addition measured upto 60 mins by LC-MS/MS analysis; assay type: ADME, Microsome; settings: time < 70 min, read-out: CLH
# [10] = Microsomal stability in human liver microsomes assessed as half life preincubated for 10 mins followed by NADPH addition measured upto 60 mins by LC-MS/MS analysis; assay type: ADME, Microsome; settings: time < 70 min
# Chain of Fibroblast growth factor receptor 2 (P21802 whole entry): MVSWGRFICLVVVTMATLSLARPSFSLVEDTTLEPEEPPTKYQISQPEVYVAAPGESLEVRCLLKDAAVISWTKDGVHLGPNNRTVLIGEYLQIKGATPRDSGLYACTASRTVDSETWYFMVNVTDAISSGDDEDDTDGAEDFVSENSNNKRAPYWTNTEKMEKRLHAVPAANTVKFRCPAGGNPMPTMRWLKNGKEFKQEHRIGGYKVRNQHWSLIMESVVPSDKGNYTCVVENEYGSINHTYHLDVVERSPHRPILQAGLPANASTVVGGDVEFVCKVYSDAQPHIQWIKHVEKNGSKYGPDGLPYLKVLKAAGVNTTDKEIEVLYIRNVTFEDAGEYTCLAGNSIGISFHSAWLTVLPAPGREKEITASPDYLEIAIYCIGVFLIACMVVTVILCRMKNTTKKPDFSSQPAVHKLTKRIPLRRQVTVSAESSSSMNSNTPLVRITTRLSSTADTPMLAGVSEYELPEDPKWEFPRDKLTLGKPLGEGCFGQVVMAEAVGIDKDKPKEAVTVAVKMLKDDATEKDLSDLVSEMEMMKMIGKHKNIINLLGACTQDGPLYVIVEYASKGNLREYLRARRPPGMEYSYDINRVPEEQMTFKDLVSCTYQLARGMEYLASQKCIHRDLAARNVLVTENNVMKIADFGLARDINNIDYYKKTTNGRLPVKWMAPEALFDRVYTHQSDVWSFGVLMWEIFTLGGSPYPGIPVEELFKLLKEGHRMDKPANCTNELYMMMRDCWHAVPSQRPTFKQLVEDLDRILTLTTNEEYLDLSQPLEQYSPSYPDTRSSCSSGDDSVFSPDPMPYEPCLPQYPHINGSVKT
# Chain of Fibroblast growth factor receptor 1 (P11362 whole entry): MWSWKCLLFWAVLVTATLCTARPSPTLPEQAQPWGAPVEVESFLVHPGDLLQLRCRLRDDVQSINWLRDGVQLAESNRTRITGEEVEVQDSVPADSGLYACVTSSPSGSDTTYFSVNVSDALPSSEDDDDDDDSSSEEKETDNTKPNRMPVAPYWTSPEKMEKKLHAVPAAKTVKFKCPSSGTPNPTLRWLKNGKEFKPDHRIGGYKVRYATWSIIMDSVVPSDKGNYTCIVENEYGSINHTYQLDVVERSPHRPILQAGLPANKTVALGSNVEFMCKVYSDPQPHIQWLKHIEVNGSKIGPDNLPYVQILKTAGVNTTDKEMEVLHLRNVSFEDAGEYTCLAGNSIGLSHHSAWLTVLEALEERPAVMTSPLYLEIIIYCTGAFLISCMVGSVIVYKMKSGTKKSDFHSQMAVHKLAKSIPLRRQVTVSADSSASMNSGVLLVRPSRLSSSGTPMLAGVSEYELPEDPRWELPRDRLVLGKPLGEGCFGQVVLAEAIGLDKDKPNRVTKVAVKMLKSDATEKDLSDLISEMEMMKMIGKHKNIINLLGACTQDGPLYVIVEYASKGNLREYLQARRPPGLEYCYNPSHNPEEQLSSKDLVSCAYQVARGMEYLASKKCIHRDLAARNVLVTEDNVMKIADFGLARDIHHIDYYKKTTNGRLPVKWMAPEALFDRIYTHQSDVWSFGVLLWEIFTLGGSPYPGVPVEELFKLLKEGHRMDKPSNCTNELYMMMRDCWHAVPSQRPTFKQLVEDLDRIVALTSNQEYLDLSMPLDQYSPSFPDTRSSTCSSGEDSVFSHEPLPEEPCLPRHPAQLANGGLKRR
Compound,IC50 [1] [nM],IC50 [3] [nM],inhibition [4] [%],IC50 [2] [nM],further results
C=CC(=O)N1CC=C(c2cc3c(Oc4ccc(NC(=O)NC5CC5)c(Cl)c4)ccnc3cc2OC)C1,1520,2.49,–,438,–
C=CC(=O)N1CCC(c2cc3c(Nc4ccc(OCc5ccccn5)c(Cl)c4)ccnc3cc2OC)CC1,> 10000,–,17.1,4020,–
C=CC(=O)N1CCC(c2cc3nccc(Oc4ccc(NC(=O)NC5CC5)c(Cl)c4)c3cc2OC)CC1,> 10000,–,25.9,> 10000,–
C=CC(=O)N1CCC(c2cc3c(Oc4ccc(NC(=O)C5(C(=O)Nc6ccc(F)cc6)CC5)cc4)ccnc3cc2OC)CC1,> 10000,–,-2.1,3930,–
C=C(F)C(=O)N1CCC(c2cc3c(Oc4ccc(NC(=O)NC5CC5)c(Cl)c4)ccnc3cc2OC)CC1,> 10000,–,21.6,> 10000,–
C=CC(=O)N1CCC(c2cc3c(Oc4ccc(NC(=O)NC5CC5)c(Cl)c4)c(C#N)cnc3cc2OC)CC1,8830,–,15,> 10000,–
C=CC(=O)N1CCC(c2cc3c(Oc4ccc(NC(=O)Cc5ccccc5)cc4F)ccnc3cc2OC)CC1,2210,–,1.1,1350,–

# Now those with a lower IC50 [1], led by results:
IC50 [1] [nM],IC50 [3] [nM],inhibition [4] [%],Compound,IC50 [2] [nM],further results
15.5,14.5,–,C=CC(=O)N1CCC(c2cc3c(Oc4ccc(NC(=O)NC5CC5)c(Cl)c4)ccnc3cc2OCC(F)(F)F)CC1,30.2,–
32.9,–,40.7,C=CC(=O)N1CCC(c2cc3c(Oc4ccc5c(C(=O)NC)c(C)oc5c4)ccnc3cc2OC)CC1,41,–
21.1,18,–,C=CC(=O)N1CCC(c2cc3c(Oc4ccc(NC(=O)NC5CC5)c(F)c4)ccnc3cc2OC)CC1,30.2,–
356,–,10.7,C=CC(=O)N1CCC(c2cc3c(Oc4ccc(NC(=O)NC5CC5)c(OCC)c4)ccnc3cc2OC)CC1,509,–
103,12.4,–,COc1cc2nccc(Oc3ccc(NC(=O)NC4CC4)c(Cl)c3)c2cc1C1CCN(C(=O)/C=C/C(F)(F)F)CC1,> 10000,–
71.3,15,–,C=CC(=O)N1CCC(c2cc3c(Oc4ccc(NC(=O)NC5CC5)c(Cl)c4)ncnc3cc2OC)CC1,72.6,–
851,–,–,COc1cc2nccc(Oc3ccc(NC(=O)NC4CC4)c(Cl)c3)c2cc1C(N)=O [LENVATINIB],696,"IC50 [5]: 11 nM; pKa [6]: 5.27; IC50 [7]: 66 nM; Papp at 16 h, 10 µM [8]: 9.27 ×10⁻⁶ cm/s; microsomal CLint [9]: 74.1 µL/min/mg; half-life [10]: 22.4 min"
54.3,2.88,–,C=CC(=O)N1CC=C(c2cc3c(Oc4ccc(NC(=O)NC5CC5)c(Cl)c4)ccnc3cc2OC)CC1,66.2,–
